Reference: US20180258180A1, “COMBINATION THERAPY INVOLVING ANTIBODIES AGAINST CLAUDIN 18.2 FOR TREATMENT OF CANCER” (Ganymed Pharmaceuticals AG, priority 2012, published 2018)

How the values were obtained:
[1] = tested on: HEK293~CLDN18.2 transfectants; assay: Early treatment of HEK293~CLDN18.2 tumor xenografts; format: in vivo, nude mice; settings: 200 μg twice per week for 6 weeks
Description: (§1) Moreover, advanced tumor treatment experiments were initiated up to 9 days after tumor cell inoculation when tumors had reached volumes of about 60-120 mm^3.
Nude mice were subcutaneously inoculated with 1×10^7 HEK293˜CLDN18.2 transfectants. Treatment of 10 mice per group started 3 days after tumor inoculation. […] Not only time to death was prolonged, but 4 of 10 mice survived the entire observation period of 210 days.

[2] = Toxicity and PK/TK profile studies (any toxicity study); format: in vivo, mice and cynomolgus monkeys
Description: (§2) This compartimentalization is lost upon malignant transformation rendering the epitope drugable by IMAB362.

[3] = tested on: CLDN18.2-positive cancer cell lines; assay: IMAB362 treatment of mice bearing CLDN18.2-positive cancer cell lines; format: in vivo
[4] = tested on: NCI-N87~CLDN18.2 xenograft tumors; assay: NCI-N87~CLDN18.2 gastric carcinoma xenografts, IMAB362 immunotherapy; format: in vivo, nude mice; settings: 800 μg i.v. weekly
Description: NCI-N87˜CLDN18.2 xenograft tumors were inoculated subcutaneously by injection of 1×10^7 NCI-N87˜CLDN18.2 cells into the flank of 8 nude mice (female, 6 weeks old) per treatment group. […] Intravenous administration was continued weekly for the whole observation time. Tumor size and animal health was monitored semi-weekly. […] The size of s.c. tumors was measured twice weekly (mean+SEM, ***p<0.001). […] Mice were sacrificed, when tumor reached a volume of 1400 mm^3.

[5] = tested on: NUGC-4 xenografts; assay: Biodistribution of Dyelight 680-labeled antibodies in NUGC-4 xenografted nude mice; settings: live imaging
[6] = tested on: NUGC-4 gastric cancer cells; assay: IMAB362-mediated ADCC on chemotherapy pretreated NUGC-4 cells; format: cell-based, human; settings: NUGC-4 pretreated with 5-FU+OX, EOF or FLO for 96 hours
Description: IMAB362-mediated ADCC was investigated using NUGC-4 gastric cancer cells as target, which were either pretreated with 10 ng/ml 5-FU and 500 ng/ml oxaliplatin (5-FU+OX), 10 ng/ml epirubicin, 500 ng/ml oxaliplatin and 10 ng/ml 5-FU (EOF) or 10 ng/ml 5-FU, 50 ng/ml folinic acid and 500 ng/ml oxaliplatin (FLO) for 96 hours (effector:target ratio 40:1) or untreated. EC50 values were obtained from 7 healthy donors for untreated and EOF, FLO or 5-FU+OX pretreated NUGC-4 cells.

[7] = tested on: CLS-103~cldn18.2 allograft tumors; assay: Combination of IMAB362 and EOF on CLS-103~cldn18.2 allograft tumors; parameters: species or system NMRI mice; settings: mouse, in vivo
Description: Tumor size and animal health were monitored semi-weekly. Mice were sacrificed, when tumor reached a volume of 1400 mm^3 or tumors became ulcerous.

[8] = Repeated dose toxicity study in cynomolgus monkeys; format: in vivo; settings: up to 5 weekly applications of up to 100 mg/kg
Description: as §2

[9] = tested on: HEK293~CLDN18.2 tumor xenografts; assay: Treatment of advanced HEK293~CLDN18.2 tumor xenografts; format: in vivo, nude mice
Description: as §1
(§3) Treatment of 9 to 10 mice per group was initiated when mean tumor volumes reached 88 mm^3 (62-126 mm^3). […] All mice in the groups treated with either PBS or isotype control died within 50-100 days. […] Three of these mice survived the entire observation period (FIG. 20). Importantly, antitumoral efficacy in vivo depends on the presence of the target on the tumor cells.

[10] = Phase I clinical study, single intravenous administration; format: in vivo, human
Description: IMAB362 is in early clinical testing. A phase I clinical study has been conducted in human. […] In an ongoing phase IIa clinical study IMAB362 is given repetitively.

[11] = molecular target: CLDN18.1 (Homo sapiens, UniProt P56856); assay: IMAB362 binding to other claudin family members
[12] = tested on: CLDN18.2-negative HEK293 tumor cells; assay: IMAB362 treatment of CLDN18.2-negative HEK293 tumors; parameters: species or system mice; settings: mouse, in vivo
Description: as §3

[13] = molecular target: CLDN18.2 (Homo sapiens, UniProt P56856); assay: IMAB362 binding to first extracellular domain of CLDN18.2
[14] = tested on: NUGC-4 gastric cancer cells; assay: NUGC-4 gastric tumor xenograft model; format: in vivo, athymic nude mice
Description: NUGC-4 cells grow aggressively in nude mice.
Tumor sizes were monitored twice weekly.
When 1×10^7 tumor cells are inoculated in mice, the median survival time of untreated mice is not longer than 25 days. […] Mice were stratified size-dependently into treatment groups (FIG. 21).

[15] = tested on: NUGC-4~CLDN18.2 xenograft tumors; assay: Combination of IMAB362 and EOF regimen on NUGC-4~CLDN18.2 xenografts; parameters: species or system nude mice; settings: mouse, in vivo
Description: Xenograft tumors were inoculated by injection of 1×10^7 NUGC-4˜CLDN18.2 cells subcutaneous into the flank of 10 nude mice (female, six weeks old) per treatment group. Mice were treated on day 3, 10, 17 and 24 with chemotherapeutic agents. IMAB362 treatment was continued weekly.

[16] = tested on: CLDN18.2-positive (NUGC-4, KATO III) human target cell lines; assay: IMAB362 ADCC with ZA/IL-2 expanded effector cells on CLDN18.2-positive target cell lines; format: cell-based
Description: These effector cell cultures were used in ADCC assays with CLDN18.2-positive (NUGC-4, KATO III) and negative (SK-BR-3) human target cell lines (E:T ratio 40:1). […] ADCC was measured in luciferase assays; cf. FIG. 15a. […] FIG. 15b. Same experiment as described in (a) was performed using NUGC-4 as target cells; cf. FIG. 15c. […] A purity of more than 97.0% Vγ9Vδ2 T cells in lymphocytes was obtained.

[17] = tested on: NUGC-4~CLDN18.2 xenografts; assay: NUGC-4~CLDN18.2 xenografts, IMAB362 immunotherapy; parameters: species or system mice; settings: mouse, in vivo

In the case of “IMAB362: chimeric IgG1 antibody directed against CLDN18.2, developed by Ganymed Pharmaceuticals AG”, the “mice surviving the entire observation period of 210 days” value [1] is reported as 4 of 10, the survival ([1]; start 3 days after inoculation) is reported as “survival benefit” and the gastric toxicity ([2]; any toxicity study) is reported as “no gastric toxicity”. The “adverse effects on male or female reproductive organs” value ([2]; in vivo) was “No adverse effects”, the “binding to tissues lacking the target” value ([2]; in vivo) was “does not bind” and the “immune activation and cytokine release” value ([2]; in vivo) was “does not induce”. For the same substance, the “systemic or local toxicity” value ([2]; repeated doses i.v., mice and cynomolgus monkeys) was “No signs of systemic or local toxicity”, the “mice showing regression of their tumor” value [3] was “up to 40%” and the survival [3] was “survival benefit”. For the same substance, the survival time [4] was “significantly (p<0.05) longer survival time”, the tumor growth ([4]; start 5 days after inoculation, versus saline) was “inhibited highly significant (p<0.001)” and the “retention of labeled antibody signal 120 hours after injection” value [5] was “detectable in comparable intensity”. For the same substance, the “maximal lysis in IMAB362-mediated ADCC, pretreated versus untreated target cells” value [6] was “higher maximal lysis”, the “EC50 of IMAB362-mediated ADCC on pretreated cells relative to untreated cells” value ([6]; E:T 40:1, 7 donors) was “one third” and the “tumor growth inhibition compared to saline control group” value [7] was “no significant tumor growth inhibition”. The “tolerability of repeated doses i.v.” value [8] was “well tolerated”, the median survival time ([9]; 200 μg twice per week for 6 weeks, start at mean tumor volume 88 mm^3, versus 25 days) was 47 days and the “mice surviving the entire observation period” value ([9]; 9 to 10 mice per group) was “Three”. The survival ([9]; advanced tumors) was “survival benefit”, the measured tumor markers ([10]; in one patient, within 4 weeks after treatment) was “decreased significantly” and the tolerability in patients ([10]; single i.v. administration, 33-1000 mg/m^2, observed for 28 days) was “very well tolerated”. For the same substance, the “binding to any other claudin family member including CLDN18.1” value [11] was “does not bind”, the antitumoral effects [12] was “No antitumoral effects” and the “recognition of the first extracellular domain (ECD1) of CLDN18.2” value [13] was “high affinity and specificity”. The “tumor growth compared to controls” value ([14]; 200 μg twice weekly, starting 6 days after inoculation, p<0.05) was “significant inhibited”, the median survival time ([14]; non-significantly increased, versus 25 days) was 31 days and the “tumor volumes at day 21 after tumor inoculation compared to control mice” value ([14]; p<0.05) was “significant smaller”. For the same substance, the tumor growth rate ([14]; treatment initiated at mean tumor size about 109 mm^3) was “significantly reduce tumor growth rate”, the “tumor growth compared to saline treated control group” value [15] was “inhibited significantly the tumor growth” and the “ADCC activity with Vγ9Vδ2 T cells isolated with >97% purity” value ([16]; NUGC-4 targets, day 14) was “retained and partly improved”. For the same substance, the “ADCC activity against CLDN18.2-positive human tumor cell lines” value ([16]; ZA/IL-2 cultured effector cells, E:T 40:1) was “Strong ADCC activity”, the survival [17] was “significantly (p<0.05) longer survival” and the “tumor sizes at day 14 of treatment” value [17] was “significant (p<0.05) smaller tumor sizes”.
